Laboratory results taken from PubChem BioAssay AID1918956 (Molecular Pharmacology Branch, DTP, NCI, 2023).
pIC50: −log10 of the molar value.

Tested on: OVCAR-5 complex spheroids, viability
Assay: Anticancer human tumor OVCAR-5 cell line growth inhibition;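 note: spheroids exposed to agents for seven days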;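 for viability, T/C: 100% = DMSO vehicle control wells viability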
Settings: for pIC50: curve of first compound; for viability, T/C: stronger effect = lower value
Summary of the method: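 Drug combinations with the LSD1 inhibitor iadademstat tested on tumor cells co-cultured as spheroids with endothelial cells and mesenchymal stem cells. Concentrations descended in half-log increments from clinical Cmax or 10 microM.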

Compound: Nc1ncn(C2CC(O)C(CO)S2)c(=O)n1 (stereo not given) + NC1CC1c1ccc(-c2cccc(O)c2)cc1
- pIC50 (second compound 0.1 µM): < 6.52
- pIC50 (second compound 0.316 µM): < 6.52
- pIC50 (second compound 1 µM): < 6.52
- pIC50 (second compound 3.16 µM): < 6.52
- pIC50 (second compound 10 µM): < 6.52
- viability, T/C (second compound 0.1 µM, first compound 0.000949 µM): 100%
- viability, T/C (second compound 0.1 µM, first compound 0.003 µM): 110%
- viability, T/C (second compound 0.1 µM, first compound 0.00949 µM): 104%
- viability, T/C (second compound 0.1 µM, first compound 0.03 µM): 95%
- viability, T/C (second compound 0.1 µM, first compound 0.0949 µM): 80.9%
- viability, T/C (second compound 0.1 µM, first compound 0.3 µM): 71.2%
- viability, T/C (second compound 0.316 µM, first compound 0.000949 µM): 107%
- viability, T/C (second compound 0.316 µM, first compound 0.003 µM): 112%
- viability, T/C (second compound 0.316 µM, first compound 0.00949 µM): 108%
- viability, T/C (second compound 0.316 µM, first compound 0.03 µM): 96.2%
- viability, T/C (second compound 0.316 µM, first compound 0.0949 µM): 88.5%
- viability, T/C (second compound 0.316 µM, first compound 0.3 µM): 69.8%
- viability, T/C (second compound 1 µM, first compound 0.000949 µM): 93.7%
- viability, T/C (second compound 1 µM, first compound 0.003 µM): 86.6%
- viability, T/C (second compound 1 µM, first compound 0.00949 µM): 93.9%
- viability, T/C (second compound 1 µM, first compound 0.03 µM): 92.4%
- viability, T/C (second compound 1 µM, first compound 0.0949 µM): 74.7%
- viability, T/C (second compound 1 µM, first compound 0.3 µM): 61.7%
- viability, T/C (second compound 3.16 µM, first compound 0.000949 µM): 95.8%
- viability, T/C (second compound 3.16 µM, first compound 0.003 µM): 97.8%
- viability, T/C (second compound 3.16 µM, first compound 0.00949 µM): 91.3%
- viability, T/C (second compound 3.16 µM, first compound 0.03 µM): 81.6%
- viability, T/C (second compound 3.16 µM, first compound 0.0949 µM): 79.8%
- viability, T/C (second compound 3.16 µM, first compound 0.3 µM): 64.4%
- viability, T/C (second compound 10 µM, first compound 0.000949 µM): 79%
- viability, T/C (second compound 10 µM, first compound 0.003 µM): 93.6%
- viability, T/C (second compound 10 µM, first compound 0.00949 µM): 84.8%
- viability, T/C (second compound 10 µM, first compound 0.03 µM): 78.1%
- viability, T/C (second compound 10 µM, first compound 0.0949 µM): 70%
- viability, T/C (second compound 10 µM, first compound 0.3 µM): 60%

Compound: O=C(C=Cn1cnc(-c2cc(C(F)(F)F)cc(C(F)(F)F)c2)n1)NNc1cnccn1 + NC1CC1c1ccc(-c2cccc(O)c2)cc1
- pIC50 (second compound 0.1 µM): 7.25
- pIC50 (second compound 0.316 µM): 7.30
- pIC50 (second compound 1 µM): 7.41
- pIC50 (second compound 3.16 µM): 7.64
- pIC50 (second compound 10 µM): 7.70
- viability, T/C (second compound 0.1 µM, first compound 0.00316 µM): 88.9%
- viability, T/C (second compound 0.1 µM, first compound 0.01 µM): 73.9%
- viability, T/C (second compound 0.1 µM, first compound 0.0316 µM): 57.2%
- viability, T/C (second compound 0.1 µM, first compound 0.1 µM): 42.1%
- viability, T/C (second compound 0.1 µM, first compound 0.316 µM): 38%
- viability, T/C (second compound 0.1 µM, first compound 1 µM): 33.9%
- viability, T/C (second compound 0.316 µM, first compound 0.00316 µM): 87.8%
- viability, T/C (second compound 0.316 µM, first compound 0.01 µM): 72%
- viability, T/C (second compound 0.316 µM, first compound 0.0316 µM): 54.9%
- viability, T/C (second compound 0.316 µM, first compound 0.1 µM): 42.2%
- viability, T/C (second compound 0.316 µM, first compound 0.316 µM): 39.1%
- viability, T/C (second compound 0.316 µM, first compound 1 µM): 34.4%
- viability, T/C (second compound 1 µM, first compound 0.00316 µM): 84%
- viability, T/C (second compound 1 µM, first compound 0.01 µM): 65.9%
- viability, T/C (second compound 1 µM, first compound 0.0316 µM): 53.8%
- viability, T/C (second compound 1 µM, first compound 0.1 µM): 39.4%
- viability, T/C (second compound 1 µM, first compound 0.316 µM): 36.2%
- viability, T/C (second compound 1 µM, first compound 1 µM): 31.7%
- viability, T/C (second compound 3.16 µM, first compound 0.00316 µM): 81.7%
- viability, T/C (second compound 3.16 µM, first compound 0.01 µM): 62.9%
- viability, T/C (second compound 3.16 µM, first compound 0.0316 µM): 43.1%
- viability, T/C (second compound 3.16 µM, first compound 0.1 µM): 38.5%
- viability, T/C (second compound 3.16 µM, first compound 0.316 µM): 34.7%
- viability, T/C (second compound 3.16 µM, first compound 1 µM): 29.7%
- viability, T/C (second compound 10 µM, first compound 0.00316 µM): 79%
- viability, T/C (second compound 10 µM, first compound 0.01 µM): 60.8%
- viability, T/C (second compound 10 µM, first compound 0.0316 µM): 42.6%
- viability, T/C (second compound 10 µM, first compound 0.1 µM): 36.6%
- viability, T/C (second compound 10 µM, first compound 0.316 µM): 33.6%
- viability, T/C (second compound 10 µM, first compound 1 µM): 35.2%
